# Measured values as given in US20050112573A1, “Method of detecting toxic substance” (priority 2001, published 2005).
# Tested on: yeast genes (level of expressed mRNA)
# Assay: DNA chip analysis of expressed mRNA of yeast genes after 2 h culture with a toxic chemical substance
# Type: cell-based, Saccharomyces cerevisiae S288C
# Procedure, shortened: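 S. cerevisiae S288C grown at 25° C in YPD; toxicant added at log phase at growth-inhibitory, non-lethal levels for 2 h, untreated cells as control. Poly(A) mRNA reverse-transcribed with Cy3/Cy5-dUTP, hybridized to whole-genome chip at 65° C >12 h; value is fluorescence ratio versus untreated.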
structure (smiles),measurement,setting,value
"C=CC=O [(14), acrolein]",The level of expressed mRNA in the presence of chemical substance/absence: YGR293C,gene YGR293C,1.0
same,The level of expressed mRNA in the presence of chemical substance/absence: YHL006C,gene YHL006C,1.1
same,The level of expressed mRNA in the presence of chemical substance/absence: YHL021C,gene YHL021C,1.1
same,The level of expressed mRNA in the presence of chemical substance/absence: YHL037C,gene YHL037C,0.9
same,level of expressed mRNA in the presence of chemical substance/in its absence,gene YHR037W,1.1
same,The level of expressed mRNA in the presence of chemical substance/absence: YHR083W,gene YHR083W,1.6
same,level of expressed mRNA in the presence of chemical substance/in its absence,gene YHR092C,1.6
same,The level of expressed mRNA in the presence of chemical substance/absence: YHR095W,gene YHR095W,0.9
same,The level of expressed mRNA in the presence of chemical substance/absence: YHR105W,gene YHR105W,1.2
same,The level of expressed mRNA in the presence of chemical substance/absence: YHR134W,gene YHR134W,1.6
same,level of expressed mRNA in the presence of chemical substance/in its absence,gene YHR137W,0.8
same,The level of expressed mRNA in the presence of chemical substance/absence: YHR180W,gene YHR180W,1.5
same,The level of expressed mRNA in the presence of chemical substance/absence: YHR181W,gene YHR181W,1.6
same,level of expressed mRNA in the presence of chemical substance/in its absence,gene YHR190W,1.3
same,level of expressed mRNA in the presence of chemical substance/in its absence,gene YIL033C,0.7
same,The level of expressed mRNA in the presence of chemical substance/absence: YIL108W,gene YIL108W,1.0
same,The level of expressed mRNA in the presence of chemical substance/absence: YIL127C,gene YIL127C,1.3
same,level of expressed mRNA in the presence of chemical substance/in its absence,gene YIL154C,0.9
same,The level of expressed mRNA in the presence of chemical substance/absence: YIL165C,gene YIL165C,1.3
same,level of expressed mRNA in the presence of chemical substance/in its absence,gene YIL167W,1.4
same,level of expressed mRNA in the presence of chemical substance/in its absence,gene YIR035C,1.1
same,The level of expressed mRNA in the presence of chemical substance/absence: YJL017W,gene YJL017W,1.0
same,The level of expressed mRNA in the presence of chemical substance/absence: YJL032W,gene YJL032W,1.6
same,The level of expressed mRNA in the presence of chemical substance/absence: YJL037W,gene YJL037W,2.0
same,The level of expressed mRNA in the presence of chemical substance/absence: YJL049W,gene YJL049W,1.8
same,level of expressed mRNA in the presence of chemical substance/in its absence,gene YJL088W,2.0
same,The level of expressed mRNA in the presence of chemical substance/absence: YJL097W,gene YJL097W,1.0
same,level of expressed mRNA in the presence of chemical substance/in its absence,gene YJL132W,1.4
same,level of expressed mRNA in the presence of chemical substance/in its absence,gene YJL196C,0.8
same,The level of expressed mRNA in the presence of chemical substance/absence: YJR030C,gene YJR030C,1.0
same,The level of expressed mRNA in the presence of chemical substance/absence: YJR044C,gene YJR044C,1.3
same,level of expressed mRNA in the presence of chemical substance/in its absence,gene YJR142W,1.3
same,level of expressed mRNA in the presence of chemical substance/in its absence,gene YJR148W,1.3
same,level of expressed mRNA in the presence of chemical substance/in its absence,gene YJR159W,2.0
same,The level of expressed mRNA in the presence of chemical substance/absence: YKL051W,gene YKL051W,0.7
same,The level of expressed mRNA in the presence of chemical substance/absence: YKL059C,gene YKL059C,1.1
same,level of expressed mRNA in the presence of chemical substance/in its absence,gene YKL067W,1.2
same,The level of expressed mRNA in the presence of chemical substance/absence: YKL090W,gene YKL090W,1.4
same,The level of expressed mRNA in the presence of chemical substance/absence: YKL094W,gene YKL094W,1.3
same,The level of expressed mRNA in the presence of chemical substance/absence: YKL097C,gene YKL097C,1.0
same,The level of expressed mRNA in the presence of chemical substance/absence: YKL100C,gene YKL100C,1.0
same,level of expressed mRNA in the presence of chemical substance/in its absence,gene YKR039W,1.2
same,The level of expressed mRNA in the presence of chemical substance/absence: YKR040C,gene YKR040C,3.8
same,The level of expressed mRNA in the presence of chemical substance/absence: YLR097C,gene YLR097C,1.7
same,level of expressed mRNA in the presence of chemical substance/in its absence,gene YLR142W,2.1
same,level of expressed mRNA in the presence of chemical substance/in its absence,gene YLR180W,0.6
same,The level of expressed mRNA in the presence of chemical substance/absence: YLR226W,gene YLR226W,1.1
same,level of expressed mRNA in the presence of chemical substance/in its absence,gene YLR273C,1.3
same,level of expressed mRNA in the presence of chemical substance/in its absence,gene YLR300W,0.6
same,level of expressed mRNA in the presence of chemical substance/in its absence,gene YLR307W,1.9
same,The level of expressed mRNA in the presence of chemical substance/absence: YLR338W,gene YLR338W,0.8
same,The level of expressed mRNA in the presence of chemical substance/absence: YLR339C,gene YLR339C,0.5
same,The level of expressed mRNA in the presence of chemical substance/absence: YLR392C,gene YLR392C,1.1
same,The level of expressed mRNA in the presence of chemical substance/absence: YLR415C,gene YLR415C,0.8
same,The level of expressed mRNA in the presence of chemical substance/absence: YLR427W,gene YLR427W,0.8
same,The level of expressed mRNA in the presence of chemical substance/absence: YML013W,gene YML013W,1.1
same,The level of expressed mRNA in the presence of chemical substance/absence: YML029W,gene YML029W,1.6
same,The level of expressed mRNA in the presence of chemical substance/absence: YML041C,gene YML041C,2.2
same,The level of expressed mRNA in the presence of chemical substance/absence: YML079W,gene YML079W,1.4
same,level of expressed mRNA in the presence of chemical substance/in its absence,gene YML110C,1.4
same,The level of expressed mRNA in the presence of chemical substance/absence: YML118W,gene YML118W,1.0
same,The level of expressed mRNA in the presence of chemical substance/absence: YMR068W,gene YMR068W,1.1
same,The level of expressed mRNA in the presence of chemical substance/absence: YMR071C,gene YMR071C,1.2
same,level of expressed mRNA in the presence of chemical substance/in its absence,gene YMR105C,1.0
same,The level of expressed mRNA in the presence of chemical substance/absence: YMR114C,gene YMR114C,1.5
same,The level of expressed mRNA in the presence of chemical substance/absence: YMR115W,gene YMR115W,1.3
same,The level of expressed mRNA in the presence of chemical substance/absence: YMR160W,gene YMR160W,1.1
same,level of expressed mRNA in the presence of chemical substance/in its absence,gene YMR189W,1.6
same,The level of expressed mRNA in the presence of chemical substance/absence: YMR258C,gene YMR258C,1.0
same,level of expressed mRNA in the presence of chemical substance/in its absence,gene YMR271C,1.8
same,level of expressed mRNA in the presence of chemical substance/in its absence,gene YMR272C,0.8
same,level of expressed mRNA in the presence of chemical substance/in its absence,gene YMR296C,0.7
same,level of expressed mRNA in the presence of chemical substance/in its absence,gene YNL012W,1.0
same,The level of expressed mRNA in the presence of chemical substance/absence: YNL026W,gene YNL026W,0.8
same,level of expressed mRNA in the presence of chemical substance/in its absence,gene YNL037C,1.3
same,level of expressed mRNA in the presence of chemical substance/in its absence,gene YNL045W,0.8
same,The level of expressed mRNA in the presence of chemical substance/absence: YNL058C,gene YNL058C,0.8
same,The level of expressed mRNA in the presence of chemical substance/absence: YNL063W,gene YNL063W,1.1
same,level of expressed mRNA in the presence of chemical substance/in its absence,gene YNL104C,0.9
same,level of expressed mRNA in the presence of chemical substance/in its absence,gene YNL106C,1.1
same,level of expressed mRNA in the presence of chemical substance/in its absence,gene YNL130C,1.0
same,level of expressed mRNA in the presence of chemical substance/in its absence,gene YNL169C,0.9
same,The level of expressed mRNA in the presence of chemical substance/absence: YNL176C,gene YNL176C,0.9
same,The level of expressed mRNA in the presence of chemical substance/absence: YNL181W,gene YNL181W,1.9
same,The level of expressed mRNA in the presence of chemical substance/absence: YNL191W,gene YNL191W,1.0
same,The level of expressed mRNA in the presence of chemical substance/absence: YNL194C,gene YNL194C,3.0
same,The level of expressed mRNA in the presence of chemical substance/absence: YNL200C,gene YNL200C,0.6
same,The level of expressed mRNA in the presence of chemical substance/absence: YNL212W,gene YNL212W,1.0
same,level of expressed mRNA in the presence of chemical substance/in its absence,gene YNL231C,0.9
same,The level of expressed mRNA in the presence of chemical substance/absence: YNL253W,gene YNL253W,1.4
same,The level of expressed mRNA in the presence of chemical substance/absence: YNL265C,gene YNL265C,1.9
same,The level of expressed mRNA in the presence of chemical substance/absence: YNL276C,gene YNL276C,1.5
same,level of expressed mRNA in the presence of chemical substance/in its absence,gene YNL322C,1.2
same,level of expressed mRNA in the presence of chemical substance/in its absence,gene YNR002C,1.2
same,level of expressed mRNA in the presence of chemical substance/in its absence,gene YNR019W,1.0
same,level of expressed mRNA in the presence of chemical substance/in its absence,gene YNR033W,0.9
same,The level of expressed mRNA in the presence of chemical substance/absence: YNR051C,gene YNR051C,1.0
same,level of expressed mRNA in the presence of chemical substance/in its absence,gene YNR059W,1.0
same,The level of expressed mRNA in the presence of chemical substance/absence: YOL026C,gene YOL026C,1.3
same,The level of expressed mRNA in the presence of chemical substance/absence: YOL030W,gene YOL030W,0.6
same,level of expressed mRNA in the presence of chemical substance/in its absence,gene YOL058W,1.5
same,level of expressed mRNA in the presence of chemical substance/in its absence,gene YOL126C,1.2
same,level of expressed mRNA in the presence of chemical substance/in its absence,gene YOL143C,0.7
same,level of expressed mRNA in the presence of chemical substance/in its absence,gene YOL153C,1.5
same,level of expressed mRNA in the presence of chemical substance/in its absence,gene YOL157C,1.2
same,The level of expressed mRNA in the presence of chemical substance/absence: YOR022C,gene YOR022C,1.0
same,The level of expressed mRNA in the presence of chemical substance/absence: YOR087W,gene YOR087W,0.9
same,The level of expressed mRNA in the presence of chemical substance/absence: YOR088W,gene YOR088W,0.4
same,level of expressed mRNA in the presence of chemical substance/in its absence,gene YOR099W,0.7
same,level of expressed mRNA in the presence of chemical substance/in its absence,gene YOR130C,1.3
same,level of expressed mRNA in the presence of chemical substance/in its absence,gene YOR136W,0.9
same,The level of expressed mRNA in the presence of chemical substance/absence: YOR138C,gene YOR138C,0.9
same,The level of expressed mRNA in the presence of chemical substance/absence: YOR155C,gene YOR155C,1.5
same,The level of expressed mRNA in the presence of chemical substance/absence: YOR253W,gene YOR253W,1.3
